According to article PMC8886686 (Journal of Inorganic Biochemistry, 2022):

Experiments:
[1] = molecular target: T1, SARS-CoV-2 PLpro (Severe acute respiratory syndrome coronavirus 2, UniProt P0DTD1); format: biochemical; conditions: 1 μM PLpro
[2] = molecular target: T2, SARS-CoV-2 3CLpro (Severe acute respiratory syndrome coronavirus 2, UniProt P0DTD1); format: biochemical
[3] = molecular target: T1, SARS-CoV-2 PLpro; format: binding; conditions: 50 μM metal ion
[4] = molecular target: T2, SARS-CoV-2 3CLpro; format: binding; conditions: 50 μM metal ion
[5] = molecular target: SARS-CoV-2 WT-PLpro (Severe acute respiratory syndrome coronavirus 2, UniProt P0DTD1); assay: Zn2+ content determination by ICP-MS, PLpro; format: binding
[6] = molecular target: SARS-CoV-2 WT-3CLpro (Severe acute respiratory syndrome coronavirus 2, UniProt P0DTD1); assay: Zn2+ content determination by ICP-MS, 3CLpro; format: binding
[7] = molecular target: T1, SARS-CoV-2 PLpro; format: binding
[8] = molecular target: T2, SARS-CoV-2 3CLpro; format: binding
[9] = molecular target: T1, SARS-CoV-2 PLpro; assay: PLpro deubiquitination assay with ubiquitin-AMC substrate; format: biochemical

In the case of `O=C([O-])[C@H](O)[C@@H](O)[C@H](O)[C@H](O)CO.O=C([O-])[C@H](O)[C@@H](O)[C@H](O)[C@H](O)CO.[Zn+2]` [Zn^2+, zinc gluconate], the “inhibition of the proteolytic activity of PLpro” value ([1]; 50 μM metal ion) is reported as 98%, the IC50 ([1]; read-out: IC50, PLpro activity, 20 μM peptide substrate) is reported as 530 ± 40 nM and the “inhibition of the proteolytic activity of 3CLpro” value ([2]; 50 μM metal ion, 0.5 μM 3CLpro) is reported as 97.6%. The IC50 ([2]; read-out: IC50, 3CLpro activity, 0.5 μM WT-3CLpro, 10 μM substrate) was 540 ± 40 nM, the “effect on melting temperature of PLpro” value [3] was “most potent metal ion to decrease the melting temperatures” and the “effect on melting temperature of 3CLpro” value [4] was “most potent metal ion to decrease the melting temperatures”. The “Zn2+ binding capacity per PLpro monomer (ICP-MS)” value [5] was 1.90 ± 0.01 eq, the “Zn2+ binding capacity of 3CLpro monomer (ICP-MS)” value [6] was 1.24 ± 0.01 eq and the “Zn2+ bound to PLpro (ITC stoichiometry)” value [7] was 1.23 ± 0.01 eq. For the same compound, the Kd ([7]; read-out: dissociation constant (KD), PLpro) was 2170 ± 360 nM, the “Zn2+ bound to 3CLpro monomer (ITC stoichiometry)” value [8] was 0.79 ± 0.01 eq and the Kd ([8]; read-out: dissociation constant (KD), 3CLpro (monomer)) was 4080 ± 660 nM. For the same compound, the “inhibition of PLpro deubiquitination activity” value [9] was 95.7%.
